Measurements as given in patent publication US8404644B2, “Agents with angiogenic and wound healing activity” (Meat & Livestock Australia Limited, priority 2007, dated 2013).

Legend:
rat aortic ring [1] = experiment: Rat aortic ring angiogenesis assay (Examples 1 and 2); format: cell-based
Protocol: Rat aorta were removed and cleaned of adhering fatty and connective tissues before being cut into rings of approximately 3 mm width. Fibrinogen was applied to the bottoms of wells of multi-well culture plates and allowed to gel by thrombin action. An aortic ring was then layered on the top of each gel and a further layer of fibrin placed on this. The fibrinogen was prepared in MCDB131 medium (Sigma, United States) supplemented with antibiotics. The double layer of fibrin was then overlaid with MCDB131 medium containing the test extracts. Control wells contained HBSS. Fumagillin (20 μg/mL) was assayed in triplicate as a negative control.
The gels were incubated at 37° C. in an atmosphere of 3% CO2/97% air. The rings were examined using an inverted microscope and the growth of microvessels from their perimeters is observed. Digital pictures were taken of these every 2 days and the extent of microvessel growth relative to the size of the ring was determined using National Institute of Health (NIH) Image software (National Institutes of Health (NIH), Rockville Pike, Bethesda, Md., United States, and the rate of growth of microvessels was then determined for each well. Each test extract was assayed in triplicate and the mean growth rate was calculated.
Additional analysis of several of the MLA008E2 fractions was performed using the rat aortic ring assay (in vitro angiogenesis) as described in Example 1.8 and a rat dorsal flap assay (wound healing assay).

[2] = tested on: bovine aorta endothelial cells; experiment: Endothelial cell migration assay; format: cell-based; details: compared to the background level of migration (cells and media); 22±1 hour
Protocol: Bovine aorta where obtained from a local abattoir and clamped at either end. Arterioles were tied off with string. The aorta was washed free of contaminating blood with 2% sucrose solution under sterile conditions. Trypsin was added in PBS buffer and incubated for 30 minutes. The endothelial cell suspension was mixed 1:1 with cell culture media (DMEM containing 20% foetal bovine serum, 2% glutamine and antibiotics). The cells were collected by centrifugation at 960×g for 10 minutes then suspended in media prior to culturing stock cell ampoules. After five cell passages the cells were frozen in 10% DMSO and stored in liquid nitrogen. […] The cells were then harvested for use.
BD Bioscience angiogenesis cell migration assay 24 well plates (BD Bioscience, Franklin Lakes, N.J., United States) were used as per the manufacturers instructions. The migration plate was kept at −18° C. until required. Briefly, bovine aorta endothelial cells were prepared in DMEM and HEPES pH 7.2 at 2×10^5 cells/mL. A 250 μL volume of the cell suspension (5×10^4 cells) were added to the top chamber. Immediately, 750 μL was added to each of the bottom wells using the sample port to the bottom wells. Samples were prepared by adding the glycoprotein extract to 1 mL of DMEM containing HEPES. The plate was incubated for 22±1 hour at 37° C., 5% CO2 atmosphere. […]

rat aortic ring [3] = experiment: Rat aortic ring angiogenesis assay (Example 4.3); format: cell-based, Lewis rat; details: for % of Control: microvessel growth; for activity in promoting angiogenesis: summary of second study
Protocol: Four separate studies were carried out to determine the angiogenic effect of crystallin preparations. Each sample was assayed in triplicate. A positive control (VEGF) and a vehicle control containing PBS was also run in triplicate. […] Preliminary statistical significance was assessed with an independent Student t-test at α<0.05. Graphical representation of averages +/− standard errors were determined.
The first study investigated the angiogenic potential of bovine fractions prepared by gel filtration analysis as described in Example 3.2. As described in that Example, the alpha fraction contained αA and αB crystallin, the β H fraction contained all β crystallins, the β L1 fractions contained a sub-fraction of beta crystallins and a high content of βB2 crystallin and beta B3 crystallin and the beta L2 fraction contained only βB2 crystallin and βA3 crystallin.
The second study investigated the angiogenic potential of purified crystallin proteins. Briefly, βB3 crystallin was prepared by heating (97-99° C. for 3 minutes, supernatant collected by centrifugation) and was essentially homogenous. Alpha A crystallin and αB crystallin samples were prepared by ion exchange chromatography as described above and were also essentially homogenous. The Wound Heal 1-3 preparations were also tested in this study.
The third study investigated the angiogenic potential of ovine crystallin proteins compared to their bovine equivalents. Both bovine and ovine crystallin proteins were purified essentially to homogeneity by RP. HPLC using a C4 column, as described below in Example 5. Homogeneity was confirmed by SDS-PAGE. The effect of elastase I treatment of βB2 crystallin was also investigated by comparing the angiogenic potential of intact βB2 crystallin (i.e. undigested) with elastase I digested βB2 crystallin. Elastase I treatment releases the N-terminal and C-terminal extensions of the crystallin protein leaving a globular protein that is monomeric.
In the final study, ovine βB2 crystallin was tested alone or in combination with indoleamine 2,3-dioxygenase (IDO) and ovine alpha B crystallin was tested alone or in combination with tryptophan dioxygenase (TDO)
Briefly, in each study, a single Lewis rat was euthanised and its aorta transferred to a 15 mL Falcon tube containing 10 mL of MCBD-131 medium and stored on ice. After transferring the aorta to a 92×17 mm petri dish containing 10 mL of ice cold MCDB-131, the outer fatty tissue was removed under an Olympus SZ-60 Dissecting microscope. This was undertaken with fibre optic lamp illumination. The aorta was then cut into sequential rings approximately 2 mm in size. Connective tissue was removed with micro scissors and forceps from the outside of the individual rings. Clean rings were stored in a separate petri dish in sterile MCDB-131 medium. Rings were pre-incubated overnight at 37° C. in an atmosphere of 97% air/3% CO2.
To prepare gel sandwiches, 75 mg of fibrinogen was added to 25 mL MCDB-131 medium and shaken gently on a rocker roller for 5 minutes. 3 ml of MCDB-131/fibrinogen solution was added to a 15 mL Falcon tube, followed by 10 μL of thrombin and quickly mixed. A 0.4 mL volume of this fibrinogen-thrombin solution was added to each well on a 24 well plate, 6 wells at a time. Aortic rings were then placed on the setting gel, pushed gently into the gel and left for 45 minutes. These steps were then repeated so each ring was covered with 0.4 mL of gel. Gels were left to set at room temperature. […] The plate was then placed in incubator (37° C., 97% air/3% CO2).
Culture plate were examined daily for signs of infection (fungal growth or yellowing of media) in the wells using an inverted microscope. The growth of microvessels from their perimeters was also observed. Digital photographs of each well were taken seven days after plating using a Pixera PVC-100C digital camera mounted on an OLYMPUS CK-12 microscope and stored on a Macintosh Computer. […]

elastase I = molecular target: T1, elastase I (Sus scrofa, UniProt P00772); experiment: Chaperone activity: protection of elastase I from heat denaturation; format: biochemical; details: boiling water bath for 30 seconds
T1 construct: purchased Worthington Biochemical Corporation 2280
Protocol: Bovine crystallin fractions were tested for ability to protect the proteases elastase I, trypsin and chymotrypsin from heat denaturation. Briefly, the proteases were heated in a boiling water bath for 30 seconds in the presence or absence of the crystallin fractions.

T1 sequence (P00772 27-266): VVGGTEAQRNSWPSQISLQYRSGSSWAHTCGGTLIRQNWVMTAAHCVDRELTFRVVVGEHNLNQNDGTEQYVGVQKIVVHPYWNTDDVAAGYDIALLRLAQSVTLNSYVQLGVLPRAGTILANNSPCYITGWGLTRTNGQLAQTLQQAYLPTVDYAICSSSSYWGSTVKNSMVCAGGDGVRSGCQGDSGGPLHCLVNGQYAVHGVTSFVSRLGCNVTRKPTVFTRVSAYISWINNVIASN

**Q.** Which “Rate of microvessel growth” value (rat aortic ring [1]; 20 μg/ml) does the source give for `CO[C@@H]1[C@H](OC(=O)/C=C/C=C/C=C/C=C/C(=O)O)CC[C@]2(CO2)[C@H]1[C@@]1(C)O[C@@H]1CC=C(C)C` [Fumagillin] here?
**A.** 9.462 ± 1.67

**Q.** And the Mean growth rate (rat aortic ring [1]; batch 1, 20 μg/ml)?
**A.** 9.5 ± 1.7

**Q.** What about the Mean growth rate (rat aortic ring [1]; batch 2, 40 μg/ml) of the same compound?
**A.** 5.4 ± 1.6

**Q.** What about the Stimulation/inhibition (rat aortic ring [1]; inhibition vs Control (HBSS), 20 μg/ml) of the same compound?
**A.** 24.07% inhibition

**Q.** What about the “Percentage stimulation or inhibition” value (rat aortic ring [1]; inhibition, batch 1, 20 μg/ml) of the same compound?
**A.** 24.1% inhibition

**Q.** And the “Percentage stimulation or inhibition” value (rat aortic ring [1]; inhibition, batch 2, 40 μg/ml)?
**A.** 57.7% inhibition

**Q.** For `N[C@@H](Cc1c[nH]c2ccccc12)C(=O)O` [Tryptophan, tryptophan], which “endothelial cell migration (in words)” value [2] is on record?
**A.** able to promote migration of the cells

**Q.** How did the “increase in microvessel growth (stimulatory)” value (rat aortic ring [3]; second study, 200 μg/mL) turn out when “Bovine αA crystallin: bovine alpha A crystallin prepared by ion exchange chromatography, essentially homogenous” was run?
**A.** 8.26%

**Q.** What about the “% of Control” value (rat aortic ring [3]; second study, 200 μg/mL) of the same compound?
**A.** 108.26%

**Q.** What about the “angiogenic activity (in words)” value (rat aortic ring [3]; summary of second and third study) of the same compound?
**A.** angiogenic

**Q.** And the “activity in promoting angiogenesis” value (rat aortic ring [3])?
**A.** 108%

**Q.** What about the “chaperone activity: protection of elastase I from heat denaturation (in words)” value (elastase I) of the same compound?
**A.** able to protect elastase I from heat inactivation

**Q.** Which results are given for “Indoleamine 2,3-dioxygenase IDO: tryptophan hydrolyzing enzyme”?
**A.** angiogenic activity (in words) (rat aortic ring [3]; forth study, 100 μg/mL): stimulatory; % of Control (rat aortic ring [3]; forth study, 100 μg/mL): 116.4%

**Q.** What does the source list for VEGF [reference compound]?
**A.** inhibition of microvessel growth (rat aortic ring [3]; first study, 30 μg/ml, not statistically significant): 15.08%; % of Control (rat aortic ring [3]; forth study, 50 μg/mL): 113.7%; angiogenic effect on microvessel growth (in words) (rat aortic ring [3]; second study, VEGF 50 μg/mL, test samples 200 μg/mL): slight stimulation; % of Control (rat aortic ring [3]; second study, 50 μg/mL): 107.08%; activity in promoting angiogenesis (rat aortic ring [3]; 50 ng/mL): 107%; % of Control (rat aortic ring [3]; third study, 50 μg/mL): 113.7%; Mean growth rate (rat aortic ring [1]; batch 2, 40 μg/ml): 13.9 ± 0.2; Percentage stimulation or inhibition (rat aortic ring [1]; stimulation, batch 2, 40 μg/ml): 11.1% stimulation
